Results on eleven substances are retold here after patent US20030148462A1, “Dual inhibition of sister chromatid separation at metaphase” (President and fellows of Harvard College, priority 2001, published 2003).

Series [1] deals with cohesin^hSCC1. The series is described as follows: In vitro separase activity assay (self-cleavage and cohesin hSCC1 cleavage) after low- or high-Δ90 extract. To be noted: for Separase self-cleavage and cohesin hSCC1 cleavage after low- versus high-Δ90 extract: low or high CDC2 activity extract. It is filed as biochemical, human. From the text:
To address whether high CDC2 activity blocked the activity of separase, an in vitro separase activity assay was developed. Plasmids coding for human securin and tagged human separase were transfected into 293T cells as follows.
Human cohesin^hSCC1 was isolated from the a human fetal thymus cDNA library using the following primers: 5′-[…]-3′ (SEQ ID NO:8) and 5′-[…]-3′ (SEQ ID NO:9). Both separase and securin were subcloned into the multi-purpose expression vector pCS2 (various versions). The resulting plasmids were utilized for transfection into 293T cells and for in vitro expression in TNT™ reticulocyte lysate (Promega). For immunoprecipitation of separase, two types of N-terminal tags were fused to the amino terminus of separase, three HA tags (FIG. 2A) or two IgG binding domains of protein A followed by four TEV-protease cleavage sequences (ZZ-TEV4-tag; FIGS. 2B, 4B, 5, 6B to E, and 7). Both versions of separase gave essentially the same results. Site directed mutagenesis was performed using either the QuickChange kit (Stratagene) or the GeneEditor system (Promega). All mutations were confirmed by DNA sequencing of manipulated regions.
To obtain securin/separase complexes, 293T cells were cotransfected with separase and securin expression plasmids using a calcium phosphate based method and subsequently synchronized as described (Fang et al. (1998) Mol. Cell 2:163). Two days after transfection, the nocodazole-arrested cells were lysed in 20 mM Tris/HCl pH 7.7, 100 mM NaCl, 1 mM NaF, 20 mM β-glycerophosphate, 5 mM MgCl2, 0.1% Triton X100, 1 μM microcystin-LR. After ultra-centrifugation at 100,000 g, the supernatant was mixed with anti-HA agarose (3F10, Roche) or IgG-sepharose (Amersham), depending on the tag of separase. For a 10 cm dish of confluent, transfected cells (corresponding to roughly 100 μl cell pellet), 20 μl of beads were used. After rotation overnight at 4° C. the beads were washed twice with CSF-XB (Murray (1991) Methods Cell Biol. 36:581) and then incubated with various Xenopus egg extracts. To prepare low- or high-Δ90 extracts, CSF extracts were supplemented with various concentrations of Δ90. Fifteen minutes thereafter, Ca^2+ was added (0.6 mM) and the extracts were further incubated for 15 minutes before adding them to the securin/separase beads. After 1 hour, the beads were washed twice with CSF-XB, once with 30 mM Hepes/KOH pH 7.7, 30% glycerol, 25 mM NaF, 25 mM KCl, 5 mM MgCl2, 1.5 mM ATP, 1 mM EGTA, and eluted with HA peptide (1 mg/ml) or TEV-protease (2 mg/ml) in 20 to 50 μl. Two μl of separase were combined with 2 μl of in vitro translated ^35S-cohesin^hSCC1 and incubated for 1 hour at 37° C. Alternatively, 2 μl of isolated metaphase chromosomes (8.7 μg DNA per μl) were used as a substrate.
Each mutant was incubated in either low- (odd numbered lanes) or high-Δ90 extract (even numbered lanes) before analyzing separase self-cleavage by immuno-blot (top panels) and cohesin^hSCC1 cleavage by autoradiography (middle and lower panels).

The test system of series [2] is human metaphase chromosomes. The series is described as follows: Sister chromatid separation of human metaphase chromosomes in Xenopus extracts. The conditions noted are these: for Separation of sister chromatids: high concentrations of Δ90 (400 nm), human chromosomes in Xenopus extract. The procedure: CSF extracts were prepared as described (Murray (1991) Methods Cell Biol. 36:581). For sister chromatid separation assays two sources of chromosomes were used, Xenopus sperm nuclei and isolated human metaphase chromosomes. Xenopus sperm nuclei were prepared as described by Philpott et al. ((1991) Cell 65:569). When they were used, the protocol developed by Murray and colleagues was followed (Holloway et al. (1993) Cell 73:1393) with the exception that Δ90 was usually added later, about 50 minutes after CSF. Re-isolation of Xenopus chromosomes was done according to Funabiki and Murray ((2000) Cell 102:411). When human chromosomes were used, the KCl concentration was lowered to 70 mM. Δ90 and isolated securin/separase (0.1 volumes) were added 20 minutes after addition of human chromosomes. After additional 20 minutes at 20° C., Ca^2+ (0.6 mM) was added. Chromosomes were re-isolated from extracts 50 minutes thereafter. Analysis by immunofluorescence microscopy was performed as described (Wood et al. (1997) Cell 91:357). The percentage of separated chromosomes was calculated according to the following equation: % separation=(number of single chromatids/2)/[(number of single chromatids/2)+number of unseparated chromosomes].
It was next determined whether the PM-2 mutant would override the inhibition not only of cohesin cleavage but also of sister chromatid separation in high-Δ90 extracts. Since the biochemical experiments utilized human separase, the existing assay was modified to examine the separation of human metaphase chromosomes in Xenopus extracts. […] In the presence of wild type separase (supplied as purified securin/separase complexes) and high concentrations of Δ90 (400 nm), only 2.7% of the chromosomes separated (FIG. 5A, row 2). […] In contrast, PM-2 (Ser 1126) led to maximal separation of sister chromatids (68%) under the same conditions (FIG. 5A, row 5). Similar results were obtained with PM-2/4 and PM-2^Asp; they caused 68% and 66% separation, respectively (FIG. 5A, rows 4 and 7). A Western blot for separase was performed to assure that similar amounts of the various separases had been used in the experiment (FIG. 5B).

Series [3] deals with T1, separase Ser1126 (Homo sapiens, UniProt Q14674).
T1 construct: Full-length human separase was PCR-amplified from a human fetal thymus cDNA library; made in house; host or cells: 293T cells (cotransfected, unsynchronized)
The series is described as follows: Ser1126-specific in vitro kinase assays with LC-MS/MS. The class given is biochemical. To be noted: securin/separase from unsynchronized 293T cells, 1 mM ATP. From the text:
(A) depicts FACS and Western analyses of synchronized HeLaS3 cells undergoing mitosis. (B) depicts quantification of cell cycle distribution and phosphorylation status of separase at Ser1126 for the samples shown in (A). (C) depicts a nano-scale microcapillary LC-MS/MS analysis of native separase phosphorylation state. Shown are the selected reaction, extracted-ion chromatograms corresponding to the unphosphorylated (upper trace) and phosphorylated (bottom trace) Glu1115-Lys1130 native tryptic peptide (blue and green) and heavy internal standard (brown and red). Inset: Averaged selected reaction m/z window corresponding to the y10-ion fragment of light and heavy peptides. (D) depicts […] in vitro kinase assays. Shown is the phosphorylation status of Ser1126 in percent as determined by incubation of affinity-purified securin/separase with various pure kinases in the presence of ATP (1 mM) followed by LC-MS/MS analysis. […] Top panel: Mock treatment.
For kinase assays, the securin/separase complex was isolated from unsynchronized, transfected cells and eluted with TEV protease without prior incubation in Xenopus extracts. […] Reactions with polo and auroraA (a gift from E. A. Nigg) were carried out as described (Bischoff et al. (1998) EMBO J 17:3052; Descombes et al. (1998) EMBO J 17:1328). All kinase assays were done in the presence of 1 mM ATP.
As a substrate, overexpressed securin/separase purified from transfected, unsynchronized 293T cells was used.
Coomassie stained securin and separase bands were digested in-gel (Shevchenko et al. (1996) Anal. Chem. 68:850). Extracted peptides were separated by nano-scale microcapillary high performance liquid chromatography (HPLC) as described (Gygi et al. (1999) Mol. Cell Biol. 19:1720). Eluting peptides were ionized by electrospray ionization and analyzed by an LCQ-DECA ion trap mass spectrometer (ThermoFinnigan). Peptide ions reaching a certain threshold were automatically selected for sequence analysis by tandem mass spectrometry. Peptide sequence was determined by data-searching against the non redundant human protein database using the Sequest algorithm (Eng et al. (1994) J. Am. Soc. Mass Spectrom. 5:1579).

In series [4] the test system is T2, recombinant securin.
T2 sequence (O95997 2-202, species assumed, looked up): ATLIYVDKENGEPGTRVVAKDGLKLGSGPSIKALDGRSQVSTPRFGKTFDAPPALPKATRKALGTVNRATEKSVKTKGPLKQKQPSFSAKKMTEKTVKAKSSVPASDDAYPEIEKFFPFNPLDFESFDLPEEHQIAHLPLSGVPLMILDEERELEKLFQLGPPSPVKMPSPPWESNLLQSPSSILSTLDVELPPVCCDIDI

Series [5] relates to separase. Put plainly: Re-inhibition of pre-activated separase by recombinant securin (cohesin hSCC1 cleavage). The class given is biochemical, human. The conditions noted are these: equal amounts of separase. The protocol: FIGS. 7A-7C depict the independent inhibition of separase activity by phosphorylation of separase and by binding of securin. (A) depicts a Western blot (upper panel) and cohesin^hSCC1 cleavage activity using isolated chromosomes as substrate (lower panel). Lane 2: Consecutive treatment of separase with high-Δ90 extract twice. (B) depicts separase that had been pre-activated in low-Δ90 extract that was eluted and incubated with recombinant securin (lanes 2 and 3) or reference buffer (lane 1) for one hour on ice. Subsequently, its cleavage activity towards in vitro translated ^35S-cohesin^hSCC1 was tested (upper panel). The separase concentration in each reaction was 4 nM, as estimated by Coomassie staining. To compare wild type separase with PM-2/4 mutant separase in its ability to bind securin the same experiment was repeated with PM-2/4 (lower panel). Roughly equal separase concentrations in both cases were assured by comparative immunoblotting (see FIG. 4B, lanes 15 and 17). (C) depicts a model for the dual inhibition of separase in metaphase and its activation at anaphase onset. PPase denotes an unknown protein phosphatase that is proposed to act on phosphorylated separase.
To determine whether securin can inhibit separase independent of the phosphorylation state of separase, and whether separase that has already been activated and has therefore cleaved itself be re-inhibited by either of the two inhibitory mechanisms, active separase was generated by treating a securin/separase complex with a low-Δ90 extract (L; FIG. 7) to degrade securin and dephosphorylate separase. […] Active separase on beads was then incubated with either recombinant securin or a high-Δ90 extract and assayed for its ability to cleave cohesin^hSCC1. […]

T1 sequence (Q14674 whole entry): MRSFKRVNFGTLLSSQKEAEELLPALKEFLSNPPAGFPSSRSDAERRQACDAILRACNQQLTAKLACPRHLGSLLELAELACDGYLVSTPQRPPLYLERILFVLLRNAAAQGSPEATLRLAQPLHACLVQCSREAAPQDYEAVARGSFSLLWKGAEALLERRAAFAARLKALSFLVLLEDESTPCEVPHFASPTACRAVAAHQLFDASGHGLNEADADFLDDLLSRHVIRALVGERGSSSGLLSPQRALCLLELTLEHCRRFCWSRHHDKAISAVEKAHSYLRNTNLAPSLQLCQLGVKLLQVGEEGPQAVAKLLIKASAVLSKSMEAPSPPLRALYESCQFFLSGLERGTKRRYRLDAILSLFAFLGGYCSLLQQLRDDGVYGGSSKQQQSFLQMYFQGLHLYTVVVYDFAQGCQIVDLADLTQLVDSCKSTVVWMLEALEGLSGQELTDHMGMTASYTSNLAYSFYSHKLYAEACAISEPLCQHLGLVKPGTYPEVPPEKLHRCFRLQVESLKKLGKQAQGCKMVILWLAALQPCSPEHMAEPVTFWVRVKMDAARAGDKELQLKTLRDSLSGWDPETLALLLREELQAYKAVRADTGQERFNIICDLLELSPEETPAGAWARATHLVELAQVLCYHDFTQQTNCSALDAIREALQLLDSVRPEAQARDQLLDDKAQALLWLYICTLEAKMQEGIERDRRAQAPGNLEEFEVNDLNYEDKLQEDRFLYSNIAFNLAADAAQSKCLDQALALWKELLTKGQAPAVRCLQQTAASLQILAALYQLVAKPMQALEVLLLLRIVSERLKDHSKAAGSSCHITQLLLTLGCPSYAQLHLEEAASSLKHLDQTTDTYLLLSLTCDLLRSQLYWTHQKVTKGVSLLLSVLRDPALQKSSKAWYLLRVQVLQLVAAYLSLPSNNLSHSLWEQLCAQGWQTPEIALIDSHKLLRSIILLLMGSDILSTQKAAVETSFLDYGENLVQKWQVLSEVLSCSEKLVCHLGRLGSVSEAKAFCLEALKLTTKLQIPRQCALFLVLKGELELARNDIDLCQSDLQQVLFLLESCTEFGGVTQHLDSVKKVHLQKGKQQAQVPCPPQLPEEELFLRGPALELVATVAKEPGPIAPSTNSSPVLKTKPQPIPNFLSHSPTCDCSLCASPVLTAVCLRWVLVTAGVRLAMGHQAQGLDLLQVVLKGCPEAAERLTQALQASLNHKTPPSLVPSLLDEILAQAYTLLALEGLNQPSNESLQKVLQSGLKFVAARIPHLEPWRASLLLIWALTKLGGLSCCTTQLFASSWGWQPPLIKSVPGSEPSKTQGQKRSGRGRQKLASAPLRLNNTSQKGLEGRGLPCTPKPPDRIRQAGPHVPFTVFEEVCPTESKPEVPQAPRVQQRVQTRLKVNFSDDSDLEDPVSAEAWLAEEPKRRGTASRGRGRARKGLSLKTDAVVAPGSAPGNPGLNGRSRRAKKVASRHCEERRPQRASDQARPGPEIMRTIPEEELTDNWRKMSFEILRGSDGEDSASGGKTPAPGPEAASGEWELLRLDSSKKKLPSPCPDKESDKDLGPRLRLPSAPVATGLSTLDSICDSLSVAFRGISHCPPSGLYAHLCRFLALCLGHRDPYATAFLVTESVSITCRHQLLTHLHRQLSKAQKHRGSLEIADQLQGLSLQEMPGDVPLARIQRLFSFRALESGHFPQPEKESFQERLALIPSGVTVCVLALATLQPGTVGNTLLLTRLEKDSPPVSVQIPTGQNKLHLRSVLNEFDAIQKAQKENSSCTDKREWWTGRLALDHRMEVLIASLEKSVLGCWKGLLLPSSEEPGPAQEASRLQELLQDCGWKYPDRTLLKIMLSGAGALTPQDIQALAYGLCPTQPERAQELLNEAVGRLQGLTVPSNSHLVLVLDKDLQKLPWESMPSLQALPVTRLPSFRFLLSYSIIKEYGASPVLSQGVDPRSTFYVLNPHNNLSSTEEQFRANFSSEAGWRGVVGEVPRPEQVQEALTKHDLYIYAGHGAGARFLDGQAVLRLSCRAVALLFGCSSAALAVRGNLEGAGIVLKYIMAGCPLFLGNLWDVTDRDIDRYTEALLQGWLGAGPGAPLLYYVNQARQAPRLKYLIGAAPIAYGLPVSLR
T1 sequence (O95997 whole entry partner): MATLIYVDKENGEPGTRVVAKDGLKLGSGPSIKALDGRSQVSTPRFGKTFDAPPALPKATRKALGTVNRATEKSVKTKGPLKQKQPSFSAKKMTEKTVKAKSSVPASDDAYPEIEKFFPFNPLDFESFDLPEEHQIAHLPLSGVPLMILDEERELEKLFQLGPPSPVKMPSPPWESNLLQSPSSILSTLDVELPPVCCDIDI

For “PM-2: single site separase phospho-mutant, site 2 (Ser1126) changed to alanine”, in series [1], the “Separase self-cleavage and cohesin hSCC1 cleavage after low- versus high-Δ90 extract” value is recorded as “still largely resistant to inhibition”. Further, the “Separase activity relative to wild type after low-Δ90 extract” value in series [1] (low-Δ90 extract) is reported as “higher than that of wild type separase”. In addition, the “Separation of sister chromatids” value in series [2] worked out at 68%.
Take “CaMKII: calmodulin-dependent kinase II, from New England Biolabs”: in series [3], the “Phosphorylation of Ser1126 by kinase” value is recorded as “not at all”.
In the case of “PM-4: single site separase phospho-mutant, site 4 (Thr1346) changed to alanine”, in series [1], the “Separase self-cleavage and cohesin hSCC1 cleavage after low- versus high-Δ90 extract” value is reported as “inactivated by high CDC2 activity albeit less so than wild type separase”. In addition, the “Separase activity relative to wild type after low-Δ90 extract” value in series [1] (low-Δ90 extract) is reported as “higher than that of wild type separase”. The “Separation of sister chromatids” value in series [2] is on record as 38%.
Regarding “human separase phospho-mutant PM-2/4 (Ser1126 and Thr1346 changed to alanine), with N-terminal ZZ-TEV4-tag”, the “cohesin^hSCC1 cleavage by pre-activated separase” value in series [4] was “both were inhibited at the same concentration of securin”.
On to “PM-2^Asp: separase with mutation of Ser1126 to aspartate”, for which the “Separase self-cleavage and cohesin hSCC1 cleavage after low- versus high-Δ90 extract” value in series [1] is “still largely resistant to inactivation”. Besides, in series [2], the “Separation of sister chromatids” value stood at 66%.
With “catalytically inactive separase: mutant separase in which the catalytic cysteine residue was replaced by a serine”, the Separase self-cleavage result in series [1] (low-Δ90 extract) is given as “not cleaved”. For the same substance, in series [2], the “Separation of sister chromatids” value is 0.4%.
Regarding “auroraA: pure kinase, a gift from E. A. Nigg”, the “Phosphorylation of Ser1126 by kinase” value in series [3] is “not at all”.
Regarding “wild type separase: human separase protein (SEQ ID NO:3), tagged, purified as securin/separase complex from 293T cells”, the “Inhibition of separase by securin, wild type versus mutant” value in series [5] is reported as “inhibited at the same concentration of securin”. Besides, the “Separase self-cleavage and cohesin hSCC1 cleavage after low- versus high-Δ90 extract” value in series [1] is on record as “efficiently at low but not at high CDC2 activity”. In addition, the “Separation of sister chromatids” value in series [2] came out at 2.7%.
“polo: pure kinase, a gift from E. A. Nigg”: the “Phosphorylation of Ser1126 by kinase” value in series [3] is listed as “not at all”.
As for “MAPK (ERK2): pure kinase from New England Biolabs”, in series [3], the “Phosphorylation of Ser1126 by kinase” value was “efficiently phosphorylated”.
In the case of “PM-2/4: separase phospho-mutant, sites 2 (Ser1126) and 4 (Thr1346) changed to alanine”, in series [5], the “Inhibition of separase by securin, wild type versus mutant” value is recorded as “inhibited at the same concentration of securin”. Moreover, the “Separase self-cleavage and cohesin hSCC1 cleavage after low- versus high-Δ90 extract” value in series [1] is listed as “no longer inhibited”. Also, in series [1] (low-Δ90 extract), the “Separase activity relative to wild type after low-Δ90 extract” value is “higher than that of wild type separase”. The “Separation of sister chromatids” value in series [2] was 68%. Further, the “Maximal degree of sister chromatid separation” value in series [2] (low-Δ90 extract plus saturating level of PM-2/4, data not shown) is “about 70%”.
